From publication PMC10144514, “Imageological/Structural Study regarding the Improved Pharmacokinetics by ^68Ga-Labeled PEGylated PSMA Multimer in Prostate Cancer” (Pharmaceuticals, 2023) come the findings set out here.

Data set [1] in a line: Lipophilicity determination (n-octanol/PBS partition). The data set is classed as physicochemical. Conditions: ^68Ga-labeled ligand. As to the method: Nuclide-labeled ligand (20 μL, ≈50 μCi), PBS (480 μL), and saturated n-octanol (500 μL) were added in a 1 mL EP tube, followed by vortex. Then the mixture was centrifuged at a low temperature (−5 °C) for 10 min until the mixture was separated into the upper and the lower layers. Liquids in the two phases were transferred into EP tubes and measured by the γ-counter. The calculation of the LogP value was based on the following equation: LogP = Lg [(counting of the organic phase − background counting)/(counting of the aqueous phase − background counting)]

Data set [2] can be described thus: In vitro stability of radiotracers in PBS (radiochemical purity by HPLC). Format: physicochemical. The conditions noted are these: incubated in PBS at 37 °C for 2 h. As to the method:
(§1) All solvents and reagents were purchased from Sigma-Aldrich (Shanghai, China) and Shanghai yuanye Bio-Technology (Shanghai, China). DOTA-(1P-PEG4), DOTA-(2P-PEG0), DOTA(DOTA-(2P-PEG4), and (DOTA-(2P-PEG4)2 were synthesized by Bidepharm (Shanghai, China), and characterized by HPLC and mass spectrometry. Radio-HPLC analyses of the radiotracers were carried out using C18 column (5 µm, 4.6 × 250 mm, ZORBAX Eclipse Plus, Agilent, Milford, MA, USA), and analytical grade solvent by solvent A (0.1% trifluoroacetic acid (TFA) in water) and solvent B (0.1% TFA in acetonitrile). A ^68Ge/^68Ga generator was purchased from ITM Medical Isotopes (Munich, Germany). The γ count was measured by a CAPRAC-t γ counter containing a NaI crystal (CAPINTEC, Ramsey, NJ, USA). All in vitro experiments regarding PSMA and the determination of radiotracers’ stability were performed in triplicate to ensure reproducibility.
(§2) […] was eluted from a ^68Ge/^68Ga generator with 0.05M HCl (≈200 MBq/mL). […]
(§3) A total of four kinds of PSMA-related ligands were designed and synthesized. The radiochemical purity of these four ^68Ga/^177Lu-labeled compounds was detected by HPLC (Figure 1) and thin-layer chromatography (Figure S5). […]

The target of the next data set is T1, human albumin (Homo sapiens, UniProt P02768).
T1 construct: purchased Sigma-Aldrich (Shanghai, China) or Shanghai yuanye Bio-Technology (general reagents statement; not tied to albumin)
Nature of the data set: In vitro determination of albumin binding (ultrafiltration). The data set is classed as in vitro ADME. The conditions noted are these: human serum albumin 20 mg/mL, 37 °C, ^68Ga-labeled. As to the method:
The albumin-binding rate of each ligand was measured by the γ-counter. ^68Ga-labeled PSMA ligand (≈50 μCi) was added into the human albumin solution (20 mg/mL). The mixture was incubated in a water bath (37 °C) for 30 min and 120 min, followed by ultrafiltration centrifugation for 5 min (10 kD, 10,000 rpm). The compound activities of the uncombined albumin or those retained on the filter membrane were measured by the γ counter, according to which the percentage of serum albumin binding activity (retained on the filter membrane) to total activity was calculated.
The calculation was based on the following equation: (counting of albumin retained on membrane − background counting)/(counting of albumin retained on membrane + counting of filtered liquid − 2* background counting) × 100%, and the average of three sets of data was taken as the final result.

Data set [3] is described as follows: In vitro stability of radiotracers in FBS (radiochemical purity by HPLC). The data set is classed as in vitro ADME. Conditions: incubated in FBS at 37 °C for 2 h. As to the method: as §1, §2, §3
In data set [4] the test system is PC-3 PIP tumor. Nature of the data set: Micro animal PET/CT and SPECT/CT imaging of PC-3 PIP tumor-bearing mice. The data set is classed as in vivo. As to the method: PC-3 PIP cells at the logarithmic phase were collected after trypsinization and re-suspended to 5 × 10^7/mL with serum-free medium after removing the supernatant. Mice (6 weeks) were subcutaneously injected with 200 μL of cell suspension, and utilized for small animal PET/CT imaging, SPECT/CT imaging, and biodistribution analysis when tumor volume was ≧100 mm^3. All animal experiments were conducted with the approval of The Southwest Medical University Animal Ethics Committee. Tumor-bearing mice (n = 3) were intravenously injected with 0.1 mL (80μCi) of freshly prepared ^68Ga/^177Lu-labeled PSMA ligands. PET/CT imaging was performed at 0.5/1/2/5 h after injection, and SPECT/CT imaging was performed at 6/24/48 h after injection. The acquired PET/CT and SPECT/CT data were re-constructed by OSEM (ordered subsets expectation maximization).

The subject of the next data set is PC-3 PIP cells. Nature of the data set: Cellular uptake and 2-PMPA blocking in PC-3 PIP cells. The data set is classed as cell-based. As to the method:
Cellular experiments in this study were performed in the PC-3 PIP cell line. PC-3 PIP, a PCa cell line with stably high-expressed PSMA [28], was a gift from Professor Chen from the National University of Singapore. Cells were cultured in ATCC 1640 medium with 10% of FBS, L-glutamine, and antibiotic (37 °C, 5% CO2).
PC-3 PIP cells were cultured in ATCC 1640 medium containing 10% FBS. When cultured to 70–80% confluency, cells were collected and seeded in a 24-well plate. After culturing overnight (37 °C, 5% CO2), the culture medium was replaced by serum-free ATCC 1640 medium (serum-starved cell culture) for 0.5 h. Then nuclide-labeled compounds were added into wells (50 µL, 1 μCi/well) with gentle shakes to ensure they were well distributed. After incubating for 30 min/60 min/120 min, cells at each time point were digested by NaOH and measured by the γ-counter to calculate the uptake rate (n ≥ 3). Cells were co-incubated with glycine (pH = 2.8) for 1 min, and then the procedure above was repeated after dissolving in 1 M NaOH (procedure for internalization). Cells were incubated with PSMA inhibitor (2-PMPA) for blocking assays for 15 min before adding the labeled ligands.

The next data set has as its target T2, PSMA (PC-3 PIP cells) (Homo sapiens, UniProt Q04609).
T2 construct: expressed in transfected cells; host or cells: PC-3 PIP cells (PC-3 stably expressing PSMA; gift from Professor Chen, National University of Singapore)
Nature of the data set: Competitive binding IC50 against [^68Ga]Ga-PSMA-11 in PC-3 PIP cells. The conditions noted are these: competition with [^68Ga]Ga-PSMA-11, 1 h. As to the method: PC-3 PIP cells were seeded in 96-well plates in triplicate and cultured to a density of 5* × 10^5 cells per well. [^68Ga]Ga-PSMA-11 was added into wells after serum-starved cell culture (1 μCi/well, ≈171 nmol/L), after which different PBS-diluted competitive ligands were added in wells and cultured for another hour. Then cells were washed with cold PBS twice removing the supernatant. Cells were collected and transferred to test tubes for counting by the γ-counter. IC50 values were analyzed and confirmed by nonlinear regression on GraphPad Prism Software.

The test system of data set [5] is PC-3 PIP tumor. Nature of the data set: Biodistribution in PC-3 PIP tumor-bearing mice. The data set is classed as in vivo. Conditions: 2 h p.i. As to the method:
PC-3 PIP cells at the logarithmic phase were collected after trypsinization and re-suspended to 5 × 10^7/mL with serum-free medium after removing the supernatant. Mice (6 weeks) were subcutaneously injected with 200 μL of cell suspension, and utilized for small animal PET/CT imaging, SPECT/CT imaging, and biodistribution analysis when tumor volume was ≧100 mm^3. All animal experiments were conducted with the approval of The Southwest Medical University Animal Ethics Committee.
PC-3 PIP tumor-bearing mice (n > 3) were divided into four groups and respectively injected with 0.1 mL (70μCi) of [^68Ga]Ga-DOTA-(1P-PEG4), [^68Ga]Ga-DOTA-(2P-PEG0), [^68Ga]Ga-DOTA-(2P-PEG4), and [^68Ga]Ga-DOTA-(2P-PEG4)2 through the caudal vein. Mice were executed at 30 min/60 min/120 min after injection. Heart, blood, lung, liver, stomach, spleen, kidney, muscle, intestine, bone, salivary gland, and tumor were collected and detected by the γ-counter. The fitted curve was calculated on the basis of standard diluted samples of the initial dosage, and then the percentage of injected dose per gram of tissue (ID%/g) was calculated.

pIC50: −log10 of the molar value.

T1 sequence (P02768 25-609): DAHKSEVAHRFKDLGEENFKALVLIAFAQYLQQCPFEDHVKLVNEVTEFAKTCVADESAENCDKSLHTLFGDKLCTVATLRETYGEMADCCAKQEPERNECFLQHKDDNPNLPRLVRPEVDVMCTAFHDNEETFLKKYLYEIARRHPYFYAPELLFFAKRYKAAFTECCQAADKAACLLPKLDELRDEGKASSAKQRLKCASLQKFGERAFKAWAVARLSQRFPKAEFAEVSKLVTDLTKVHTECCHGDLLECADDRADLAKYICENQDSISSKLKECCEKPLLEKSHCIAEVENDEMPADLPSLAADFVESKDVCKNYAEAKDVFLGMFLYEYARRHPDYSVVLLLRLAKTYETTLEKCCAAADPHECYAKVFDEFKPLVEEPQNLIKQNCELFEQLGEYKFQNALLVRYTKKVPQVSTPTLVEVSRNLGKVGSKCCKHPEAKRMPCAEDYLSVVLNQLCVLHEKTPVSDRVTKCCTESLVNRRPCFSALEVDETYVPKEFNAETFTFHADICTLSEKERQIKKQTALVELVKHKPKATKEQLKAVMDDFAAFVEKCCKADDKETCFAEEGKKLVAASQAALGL
T2 sequence (Q04609 whole entry): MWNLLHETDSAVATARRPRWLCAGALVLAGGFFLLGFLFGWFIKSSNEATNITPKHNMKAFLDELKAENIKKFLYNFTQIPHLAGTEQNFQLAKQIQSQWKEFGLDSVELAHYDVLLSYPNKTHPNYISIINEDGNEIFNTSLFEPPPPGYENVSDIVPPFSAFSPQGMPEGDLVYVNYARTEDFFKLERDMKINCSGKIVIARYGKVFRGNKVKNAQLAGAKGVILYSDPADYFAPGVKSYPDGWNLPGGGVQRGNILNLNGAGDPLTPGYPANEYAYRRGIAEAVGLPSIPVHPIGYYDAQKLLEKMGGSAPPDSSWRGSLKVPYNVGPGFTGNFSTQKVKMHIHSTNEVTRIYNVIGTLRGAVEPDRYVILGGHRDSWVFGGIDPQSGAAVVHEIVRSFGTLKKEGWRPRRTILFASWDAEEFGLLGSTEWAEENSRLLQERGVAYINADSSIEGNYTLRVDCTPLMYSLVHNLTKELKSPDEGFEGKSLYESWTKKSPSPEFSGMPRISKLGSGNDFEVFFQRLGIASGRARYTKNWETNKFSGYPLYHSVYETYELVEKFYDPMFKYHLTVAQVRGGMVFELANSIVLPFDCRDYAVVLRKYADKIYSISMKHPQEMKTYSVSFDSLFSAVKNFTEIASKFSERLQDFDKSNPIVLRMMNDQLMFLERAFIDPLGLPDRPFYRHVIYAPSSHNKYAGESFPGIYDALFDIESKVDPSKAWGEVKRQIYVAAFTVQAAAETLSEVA

`O=C(O)CC[C@H](NC(=O)N[C@@H](CCCCNC(=O)[C@@H](CCC(=O)NCCCC[C@@H](NC(=O)N[C@H](CCC(=O)O)C(=O)O)C(=O)O)NC(=O)CN1CCN(CC(=O)O)CCN(CC(=O)O)CCN(CC(=O)O)CC1)C(=O)O)C(=O)O` [[^68Ga]Ga-DOTA-(2P-PEG0), metal not drawn]: in data set [1], the logP (as a rule, a log measure of how a compound divides between an organic and an aqueous phase) is -2.84. For the same compound, the “radiochemical purity (PBS) at 2 h” value in data set [2] is recorded as 95.78%. Further, the “albumin-binding rate (0.5 h)” value at human albumin (0.5 h) was determined as 54.84%. In addition, the “albumin-binding rate (2 h)” value on human albumin (2 h) is 54.29%. In data set [3], the “radiochemical purity (FBS) at 2 h” value came out at 95.21%. In the data set on PC-3 PIP tumor [4] (^68Ga-labeled, PET/CT at 0.5/1/2/5 h after injection), the “tumor uptake on PET/CT imaging” value was “began to decline at 2 h after injection”. Moreover, in the data set on PC-3 PIP cells (PC-3 PIP cells blocked by 2-PMPA, uptake at one hour (Figure 3C)), the “uptake rate after co-incubation with PSMA inhibitor 2-PMPA” value was found to be 1.00 ± 0.16%. In addition, the “2 h cellular uptake rate” value with PC-3 PIP cells (PC-3 PIP cells, 2 h, ^68Ga-labeled) was determined as 8.39 ± 3.65%. The pIC50 (commonly the IC50 on a negative log10 scale, so that one unit is a factor of ten) at PSMA (PC-3 PIP cells) is 6.34. Moreover, the “2 h blood uptake value” in the data set on PC-3 PIP tumor [5] worked out at 2.78 ± 1.80 ID%/g.
Regarding `O=C(O)CC[C@H](NC(=O)N[C@@H](CCCCNC(=O)[C@H](Cc1ccc2ccccc2c1)NC(=O)[C@H]1CC[C@H](CNC(=O)CN2CCN(CC(=O)O)CCN(CC(=O)O)CCN(CC(=O)O)CC2)CC1)C(=O)O)C(=O)O` [[^177Lu]Lu-PSMA-617, metal not drawn, reference compound], in the data set with PC-3 PIP tumor [4] (^177Lu-labeled, SPECT/CT, 6 h after injection), the “kidney uptake on SPECT/CT imaging at 6 h” value is reported as “detectable kidney uptake at 6 h”.
